These results are taken from patent EP1030659B1 (Warner-Lambert Company LLC, priority 1997, dated 1999).

The test system of series [1] is Male Swiss-Webster mice. Briefly: Locomotor stimulant effects (horizontal locomotor activity). The format is in vivo. As to conditions: i.p.; for ED50: Mus musculus, ip, dose resulting in ½ the maximal stimulant effect, read-out: Stimulation Potency (ED50); for locomotor stimulant effects, time course (in words): 2-hour session; for Stimulation Efficacy: ratio of the maximal stimulant effect of the test compound to the maximal effect of (+)-amphetamine.

Series [2] is described as follows: Nasal airway pressure (decongestant activity) in normal and histamine-challenged rats. It counts as in vivo, Sprague Dawley rats. As to conditions: for Mean Decrease in Nasal Airway Pressure: mean ± standard error; for Post Drug nasal airway pressure: 100% dose into the jugular vein; for %Change in nasal airway pressure: 100% dose.
Series [3] has as its target α1-receptors. As to the kind of experiment: Alpha-1 binding, 3H-prazocin, canine lung membranes. Details: species or system mongrel dogs. Conditions: for Ki: Ki = IC50 / 1 + I/Kd, Kd from saturation analysis, unit inferred.
Series [4] addresses α2-receptors. As to the kind of experiment: Alpha-2 binding, p-125iodoclonidine, canine brain (frontal cortex) membranes. Details: species or system mongrel dogs. Conditions: for Ki: Ki = IC50 / 1 + I/Kd, Kd from saturation analysis, unit inferred; for IC50: inhibition of 50% of specific p-iodoclonidine binding, mean of several test samples; for Kd: canine cerebral cortex membranes. As for the experimental part: • PULMONARY ALPHA-1 AND BETA-2 RECEPTORS. The lungs of mongrel dogs were separated from cartilaginous airways and major blood vessels, weighed, chopped and placed into 10 volumes of ice-cold buffered sucrose (50 mM Tris-HCl, pH 7.4, 1 mM EGTA, 0.32 M sucrose). The tissue was then homogenized in a type PT10/35, size 89/PTA 20S, Polytron tissue homogenizer (Kinematica, Westbury, NY). The homogenate was filtered through two layers of cheesecloth, and the filtrate was dounced three times using a 55 ml Con-Torque Potter homogenizer (Eberbach Corporation, Ann Arbor, Ml). […] The supematant was re-centrifuged at 30,000 x g for 30 minutes at 4°C and the resulting pellet was washed and resuspended in 10 volumes of Tris buffer (50 mM Tris HCL, pH 7.4, 1 mM EGTA) and incubated at 37°C for 30 minutes in a shaking water bath. The suspension was centrifuged at 4°C at 30,000 x g for 30 minutes and the resulting pellet washed in 10 volumes of Tris buffer for a total of three additional centrifugations and washes. […] Protein concentration was determined by the Lowry method and the final suspension was adjusted to 10 mg of protein/ml, aliquoted and stored at -90°C. Particulates were also prepared for β2 receptors using the identical procedure except the final protein concentration was adjusted to 0.1 mg/ml. • BRAIN ALPHA-2 RECEPTORS: Membranes of mongrel dogs were harvested from the canine frontal cortex and prepared as described above with respect to the lungs, except that the final membrane protein concentration was adjusted to 0.5 mg/ml.
Nonspecific binding was determined for each concentration point in separate incubations using 10 µM phentolamine. Each experimental point was determined in triplicate. […] All binding assay incubations were terminated by rapid dilution with 2 ml of ice-cold wash buffer (50 mM Tris-HCl, pH 7.4) and filtration through FP-100 Whatman GF/B fired filters (Biomedical Research & Development Lab, Gaithersburg, MD) using a Brandel receptor-binding harvester. The filters were washed twice more with 4 ml of wash buffer and then added to 6 ml Cytoscint (ICN, Costa Mesa CA) for liquid scintillation counting (Barnes et al., 23 MOL. PHARMACOL. 570-75 (1983)). […] Nonspecific binding was determined in separate incubations in the presence of 10 µM phentolamine. The final concentration of p-iodoclonidine was 44-45 pM in competition studies and between 50 pM and 10 nM in saturation experiments. Bound and free p-^125 iodoclonidine were separated and the bound quantitated as described below for the ICYP assays. […] Nonspecific binding was determined in separate incubations in the presence of 2 µM d,I-propranolol. Each experimental point was determined in triplicate. […] Incubations were terminated as described above for the α1 assays. Filters were placed into polyethylene tubes and the bound ligand was determined by gamma spectrometry(Sano et al., 52 LIFE SCIENCES 1063-70 (1993)).
All data were analyzed with the aid of microcomputer nonlinear curve fitting programs (PRISM 2.0, Graphpad Software, San Diego CA).
The receptors resident in each of the three membrane preparations were evaluated by standard saturation analysis following the addition of increasing concentrations of the appropriate radioligand.
The radioligand added for subsequent α2-displacement assays was adjusted to evaluate only the high affinity receptor. Contributions from p-iodoclonidine binding to imidazoline receptors in the α2- displacement assay was evaluated with epinephrine.

For series [5], the system named is Male Swiss-Webster mice. Briefly: H1 antihistamine (triprolidine) interaction studies, locomotor activity. Conditions: for interaction with triprolidine pretreatment (central nervous system stimulation, horizontal movement): pretreatment with 0.01, 0.1, or 1.0 mg/kg triprolidine 20 minutes before the sympathomimetic.
Series [6] is described as follows: Dosage required to raise mean arterial pressure (MAP) by 10% in dogs. It counts as in vivo. As to conditions: experimentally determined. How it is done: (§1) Nasal airway pressure was measured using a Validyne pressure transducer (Validyne Engineering, Northridge, CA) with a 2.25 cm H2O range membrane connected to a multipen recorder (Grass Instruments, Quincy, MA). Air was passed through an in-line direct measure flow meter (Gilmont Instruments, Barrington, IL) connected to the nasal opening cannula. Pressure was measured in the line with a constant flow rate (150 ml/min) of air. Drugs were directly injected into the jugular vein using a 30 gauge needle. All injections were of a constant 0.1 ml volume. In the congestion challenged groups congestion was achieved by an intranasal administration of histamine (50 mM, 0.02 ml/nostril). The histamine was expelled after 2 minutes with a short nasal cannula airflow and subsequent enantiomeric drug doses were directly injected into the jugular vein. The dosage chosen for each drug was the amount needed to increase the mean arterial pressure (MAP) of the animal by 10%; this dosage served as the "100%" dose for the initial nasal airway studies. […] The dosage required for rats was calculated by proportionately adjusting the experimentally determined dog dosage to account for the lesser weight of the rats.

A short description of series [7]: Rat dosage calculated from the dog dosage that raises MAP by 10%. It counts as in vivo. As to conditions: calculated from the dog dosage by proportionately decreasing for the lesser weight of the rat; absolute dosage. As for the experimental part:
as §1

Series [8] has as its target T1, β2-receptors (Canis lupus familiaris, UniProt P54833).
T1 construct: The lungs of mongrel dogs were separated from cartilaginous airways and major blood vessels; from tissue; host or cells: mongrel dog lung membranes
As to the kind of experiment: Beta-2 binding, 125iodocyanopindolol (ICYP), canine lung membranes. Also on record: species or system mongrel dogs.

[9] abbreviates: 5% of the dose that increased canine resting mean arterial pressure 10%, rats.
Setting [10] is: 10% of the dose that increased canine resting mean arterial pressure 10%, rats.
[11] abbreviates: 25% of the dose that increased canine resting mean arterial pressure 10%, rats.
Where [12] appears, read: 50% of the dose that increased canine resting mean arterial pressure 10%, rats.
Where [13] appears, read: histamine-challenged rats (50 mM, 0.02 ml/nostril).
Where [14] appears, read: histamine-challenged rats, relative to post-histamine level.
[15] abbreviates: non-histamine-challenged rats, relative to control.

Molecules are shown by their SMILES. Read-outs that look alike come from different tables or passages of the source.

T1 sequence (P54833 whole entry): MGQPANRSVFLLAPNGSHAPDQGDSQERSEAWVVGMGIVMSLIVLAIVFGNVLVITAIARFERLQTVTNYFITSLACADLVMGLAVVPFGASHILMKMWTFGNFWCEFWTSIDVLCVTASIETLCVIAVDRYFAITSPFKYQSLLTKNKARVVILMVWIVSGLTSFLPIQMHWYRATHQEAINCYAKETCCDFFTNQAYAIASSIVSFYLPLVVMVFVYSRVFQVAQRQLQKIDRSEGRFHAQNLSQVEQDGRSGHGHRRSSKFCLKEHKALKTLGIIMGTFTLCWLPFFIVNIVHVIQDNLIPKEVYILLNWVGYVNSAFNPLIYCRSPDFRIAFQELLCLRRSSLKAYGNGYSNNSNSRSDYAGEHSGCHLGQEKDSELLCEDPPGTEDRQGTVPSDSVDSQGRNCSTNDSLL

A word on the ED50: it is the dose at which the effect has come halfway, by size or by number of responders. On to `CC(N)Cc1ccccc1` (single isomer, unassigned; (+)) [(+)-amphetamine], for which, in series [1], the ED50 turned out to be 1.3 mg/kg; the “locomotor stimulant effects, time course (in words)” value (“locomotor stimulant effects” for short) is “dose- and time-dependent increase in the distance traversed”.
Usually Ki stands for a measure of affinity in units of concentration, obtained from inhibition or displacement. In general, IC50 refers to the point on the concentration scale where inhibition reaches its midpoint. Regarding `CN[C@H](C)[C@@H](O)c1ccccc1` [(+)-ephedrine], the “Mean Decrease in Nasal Airway Pressure” value in series [2] (setting [9]) is -2.6 ± 1.0; in series [2] (setting [10]), 3.0 ± 1.0; in series [2] (setting [11]) it was -0.1 ± 1.4; in series [2] (setting [12]) it was -1.0 ± 3.3. In addition, the “effect on normal airway decongestion (in words)” value in series [2] (75% dose, rats) is reported as “approximately the same efficacious effect on normal airway decongestion”. Also, the “Post Drug nasal airway pressure” value came out at 8.2 ± 0.3 mm water in series [2] (setting [13]) and 7 ± 0.9 mm H2O in series [2] (non-histamine-challenged rats). The “%Change in nasal airway pressure” value in series [2] (setting [14]) was […]; in series [2] (setting [15]), […]. Also, the figures for the Ki in series [3] and in series [4] were 40000 nM and […], respectively. For the same compound, the IC50 in series [4] came to […]. Further, the ED50 in series [1] was 84.9 mg/kg. Besides, in series [1], the “locomotor stimulant effects” value is listed as “small increase in locomotor activity”. Also, the “Stimulation Efficacy” value in series [1] was determined as 0.25. Besides, the “interaction with triprolidine pretreatment (central nervous system stimulation, horizontal movement)” value in series [5] is “No such central nervous system stimulation”. Also, the “Dosage of Enantiomer, Dog: dosage required to raise MAP by 10%” value (“Dosage of Enantiomer, Dog … by 10%” below) in series [6] turned out to be 200 µg/kg. Further, in series [7], the “Dosage of Enantiomer, Rat” value is 60 µg.
As for `CN[C@@H](C)[C@@H](O)c1ccccc1` [(+)-pseudoephedrine], the “Mean Decrease in Nasal Airway Pressure” value is […] in series [2] (setting [9]), -6.8 ± 3.6 in series [2] (setting [10]), -13.5 ± 4.3 in series [2] (setting [11]) and […] in series [2] (setting [12]). In addition, the “Post Drug nasal airway pressure” value in series [2] (setting [13]) is 6.1 ±1.5 mm water; in series [2] (non-histamine-challenged rats), 7 ± 0.9 mm H2O. Moreover, the “%Change in nasal airway pressure” value in series [2] (setting [14]) is given as -36.7 ±2.7%; in series [2] (setting [15]), […]. For the same compound, the Ki in series [3] amounted to 299000 nM; in series [4], […]. In addition, the IC50 in series [4] is […]. In addition, in series [1], the ED50 was determined as 12.6 mg/kg. Besides, the “locomotor stimulant effects” value in series [1] is reported as “Little or no stimulant effects”. Further, in series [1], the “Stimulation Efficacy” value was determined as […]. Also, the “interaction with triprolidine pretreatment (central nervous system stimulation, horizontal movement)” value in series [5] is “increased horizontal movement”. In addition, the “Dosage of Enantiomer, Dog … by 10%” value in series [6] was 200 µg/kg. The “Dosage of Enantiomer, Rat” value in series [7] was 60 µg.
Consider `CNC[C@H](O)c1cccc(O)c1` [(-)-phenylephrine], for which the “Mean Decrease in Nasal Airway Pressure” value is -1.6 ± 0.9 in series [2] (setting [9]), -4.8 ± 0.8 in series [2] (setting [10]), -12.1 ± 2.3 in series [2] (setting [11]) and -5.2 ± 1.6 in series [2] (setting [12]). The “Post Drug nasal airway pressure” value in series [2] (setting [13]) is reported as 10.5 ±2.1 mm water; in series [2] (non-histamine-challenged rats), 4 ± 0.2 mm H2O. The “%Change in nasal airway pressure” value is -22.3 ±8.5% in series [2] (setting [14]) and -20.3 ± 4.3% in series [2] (setting [15]). The same compound returned an IC50 in series [3] of 7000 nM. Besides, the Ki in series [3] came to 3000 nM. In series [1], the “Stimulation Efficacy” value is given as 0. Moreover, the “Dosage of Enantiomer, Dog … by 10%” value in series [6] was 10 µg/kg. The “Dosage of Enantiomer, Rat” value in series [7] is 3 to 5 µg.
Consider `CNC[C@H](O)c1ccc(O)c(O)c1` [Epinephrine, epinephrine], for which the “displacement of bound p-iodoclonidine” value in series [4] (check for binding to imidazoline receptors in the α2-displacement assay) is given as “easily displaced all bound p-iodoclonidine”.
The Kd is a measure of binding affinity in units of concentration. In the case of `CC(C)(C)NCC(O)COc1cccc2[nH]c(C#N)c(I)c12` (stereo not drawn) [ICYP, iodocyanopindolol], the Kd in series [8] (Saturation Analysis, Run 1) is 0.0096 nM; in series [8] (Saturation Analysis, Run 2), 0.0093 nM; in series [8] (Saturation Analysis, Summary), 0.0095 nM; in series [8] (Scatchard Analysis, Run 1), 0.0099 nM; in series [8] (Scatchard Analysis, Run 2), 0.0078 nM; in series [8] (Scatchard Analysis, Summary), 0.0089 nM.
Turning to `CC(C)(C)NCC(O)COc1cccc2[nH]c(C#N)c([125I])c12` (stereo not drawn) [ICYP, iodocyanopindolol], the Bmax in series [8] (Saturation Analysis, Run 1) worked out at 149 femtomoles per mg protein; in series [8] (Saturation Analysis, Run 2), 142 femtomoles per mg protein; in series [8] (Saturation Analysis, Summary), 146 femtomoles per mg protein; in series [8] (Scatchard Analysis, Run 1) it was 150 femtomoles per mg protein; in series [8] (Scatchard Analysis, Run 2) it was 139 femtomoles per mg protein; in series [8] (Scatchard Analysis, Summary) it was 145 femtomoles per mg protein.
As for `Clc1cc(I)cc(Cl)c1NC1=NCCN1` [p-iodoclonidine], the Kd is 0.15 nM in series [4] (Saturation Analysis, read-out: Kd 1 (high affinity)); 3.01 nM in series [4] (Saturation Analysis, read-out: Kd 2 (high affinity)); 0.15 nM in series [4] (Scatchard Analysis, read-out: Kd 1 (high affinity)); 0.87 nM in series [4] (Scatchard Analysis, read-out: Kd 2 (low affinity)).
As for `Cc1ccc(/C(=C\CN2CCCC2)c2ccccn2)cc1` [triprolidine], the “effect on horizontal distance, triprolidine alone” value in series [5] (0.25 to 25 mg/kg, injected immediately prior to testing, 2-hour test period) is listed as “failed to affect horizontal distance”. Moreover, the “effect on locomotion, triprolidine alone” value in series [5] (50 and 100 mg/kg, beginning within 10 minutes, lasting 30 to 40 minutes) is “Dose-dependent depression of locomotion”.
